Measurements reported in patent US20210387952A1, “SOLID STATE FORMS OF D[…] PROCESS FOR PREPARATION THEREOF” (TEVA PHARMACEUTICALS INTERNATIONAL GMBH, priority 2018, published 2021).

Assay: Solid state (polymorphic and chemical) stability on storage

Structure (SMILES): O=C(O)CNC(=O)c1c(O)n(C2CCCCC2)c(=O)n(C2CCCCC2)c1=O [Form 3, 2-[(1,3-dicyclohexyl-2,4,6-trioxo-1,3-diazinane-5-carbonyl)amino]acetic acid]
- polymorphic and chemical stability (crystalline solid form): polymorphically and chemically stable
- storage time over which the form is stable (stored in closed bottles): at least 2 weeks
